Measurements taken from patent US12544392B2, “Treatment of adenovirus infection or disease associated with adenovirus infection” (SymBio Pharmaceuticals Limited, priority 2023, dated 2026).
Entries after “also recorded” stand apart in the source; their conditions may differ.

Legend:
[1] = Analysis of lymphocytes: absolute lymphocyte count of a patient in cohort 3; assay type: in vivo, human; details: patient 110-05 in cohort 3 (0.4 mg/kg IV twice weekly)
Excerpt: In the clinical study of Example 1, the absolute lymphocyte count in the plasma of the patient 110-05 in cohort 3 was examined.

adenovirus (AdV) [2] = assay: Analysis of AdV content in stool of patients by quantitative PCR; assay type: in vivo, human; details: for patients in whom AdV content in stool was reduced to ND during the study period: ND = not detected
Excerpt: In the clinical study of Example 1, the AdV contents in the stools of patients were examined. […] In the figure, D means detected, ND means not detected, and NP means not performed. A quantitative PCR method was used to analyze AdV contents.

[3] = Human clinical study: BCV-related adverse events (NCI CTCAE version 5.0); assay type: in vivo
Experimental: The study duration is at least 9 weeks, based on a screening period of 1 week, a treatment period of at least 4 weeks, and post-treatment follow-up period of 30 days. In the screening, after informed consent has been obtained from the patients, a screening evaluation is conducted to determine eligibility for the study. On the first day of the first week of the treatment period, patients are assigned a dose based on the applicable cohort (see the section 1.1.3 Cohorts 1-3 above). The duration of treatment is a minimum of 4 weeks and a maximum of 14 weeks, and termination is based on the treatment stopping criteria as described below. For patients who, at the physician's discretion, are assessed as being at high risk for AdV infection/recurrence of disease, the treatment period may be extended for up to 10 weeks, even after the 4-week treatment period is completed, if the AdV is not detected by the two most recent consecutive assays with an interval of 3 days at least. All patients are followed up for 30 days after the last dosing. Adverse events is evaluated according to the National Cancer Institute Common Terminology Criteria for Adverse Events (NCI CTCAE) version 5.0 (grade 1-5). Based on the results of the review of safety data from cohort 1, a decision is made whether to initiate cohort 2. Likewise, the decision to initiate cohort 3 is based on the results of the review of safety data from cohort 2. Enrollment in a new cohort is terminated immediately if grade 3 or higher adverse events are observed in more than 25% of all subjects in the previous cohort.

adenovirus (AdV) [4] = assay: Human clinical study on treatment of AdV infectious disease: viral load of AdV in plasma by real-time qPCR; assay type: in vivo; details: for time for the levels of viral load to reach below the LOD: overall
Experimental: A human clinical study on the treatment of adenovirus (AdV) infectious disease was conducted according to the following procedure.
Patients aged 2 months or older who have asymptomatic AdV infection or AdV disease, have an underlying immunocompromised state, and have AdV viremia at a high level, including hematopoietic stem cell transplant recipients before the immune reconstitution by the graft cells is achieved, organ transplant recipients on medication with an immunosuppressant, and patients with immunodeficiency syndrome (patients with 10,000 or more copies/ml in a sample, or patients with 1,000 or more copies/ml in two samples while the second viral load is greater than the first viral load).
The brincidofovir (BCV) infusion is a sterile aqueous solution containing 10 mg/mL BCV.
• Product name: Brincidofovir (BCV) • Dosage form: Solution for infusion • Unit dose: 10 mg/mL (1 mL per vial) • Route of administration: Intravenous (IV) infusion • Physical description: Clear, colorless solution in a sterile glass vial • Storage: Refrigerated (2-8° C.) • Dosing: Continuous IV drip infusion administered over a period of 2 hours twice weekly (on Days 1 and 4) 1.1.3 Dose • Cohort 1:0.2 mg/kg (if body weight≥50 kg, 10 mg/dose), twice weekly • Cohort 2:0.3 mg/kg (if body weight≥50 kg, 15 mg/dose), twice weekly • Cohort 3:0.4 mg/kg (if body weight≥50 kg, 20 mg/dose), twice weekly 1.1.4 Drug Administration
The dose of BCV 10 mg/mL solution for infusion is prepared based on the patient's body weight.
Preparation: Using a sterile syringe and needle, transfer 1 mL of IV BCV solution from one vial into a 100-mL glucose 5% IV bag to make a diluted dosing solution. For more than 10 mg/dose, prepare one additional diluted dosing solution in the same procedure mentioned above. Gently invert the bag at least 5 times to mix. Note: No vigorous shaking of the solution in a vial or the diluted dosing solution in a bag.
Administer the appropriate volume of diluted dosing solution based on the patient's body weight. Each dose is administered intravenously at a constant rate over 2 hours. Upon completion of the administration, the IV line is flushed with glucose 5% or dextrose 5% to ensure the IV line has been cleared of all active drug. If required per institutional practice, the flush of glucose 5% or dextrose 5% may be followed by a flush with normal saline. Diluted dosing solution should be prepared at the time of use in principle and should not be prepared the day before.
Subjects 101-12 of cohort 2, and 101-15, 101-18 and 110-06 of cohort 3 took cyclosporine, an immunosuppressive drug, during the treatment period (duration of treatment) of intravenous BCV. Prior PK studies in healthy subjects have shown a significant increase in plasma BCV exposure with concomitant intravenous infusion of BCV and cyclosporine. […] In view of the above, for the above patients taking cyclosporine, any of the doses indicated in 1.1.3 (cohorts 1-3) above is reduced to 60% for administration. Note that when cyclosporine is administered as BID (twice daily) oral or injectable form, the administration is conducted with an interval of 2 hours after the completion of intravenous BCV. In the case of continuous infusion of cyclosporine for 24 hours, no interval is needed.
The study duration is at least 9 weeks, based on a screening period of 1 week, a treatment period of at least 4 weeks, and post-treatment follow-up period of 30 days. In the screening, after informed consent has been obtained from the patients, a screening evaluation is conducted to determine eligibility for the study. On the first day of the first week of the treatment period, patients are assigned a dose based on the applicable cohort (see the section 1.1.3 Cohorts 1-3 above). The duration of treatment is a minimum of 4 weeks and a maximum of 14 weeks, and termination is based on the treatment stopping criteria as described below. […]

[5] = cohort 2: 0.3 mg/kg IV twice weekly
[6] = cohort 3: 0.4 mg/kg IV twice weekly
[7] = cohort 1: 0.2 mg/kg IV twice weekly
[8] = cohort 3: 0.4 mg/kg IV twice weekly, of 10 cases

SMILES: CCCCCCCCCCCCCCCCOCCCOP(=O)(O)CO[C@H](CO)Cn1ccc(N)nc1=O [BCV, [(2S)-1-(4-amino-2-oxopyrimidin-1-yl)-3-hydroxypropan-2-yl]oxymethyl-(3-hexadecoxypropoxy)phosphinic acid]
- number of lymphocytes (absolute lymphocyte count) [1]: tended to increase
- patients in whom AdV content in stool was reduced to ND during the study period (adenovirus (AdV) [2]; [5]): 2 of 9
- cases reduced to ND in which AdV was detected in stool in the following week (adenovirus (AdV) [2]; cohort 2: 0.3 mg/kg IV twice weekly, of the two cases): one
- patients in whom AdV content in stool was reduced to ND during the study period (adenovirus (AdV) [2]; [6]): 5 of 8
- BCV-related adverse event, grade (relatedness) ([3]; cohort 1 (0.2 mg/kg IV twice weekly), patient 109-01, 0.2 mg/kg): elevated aspartate transaminase (AST)—grade 1 (probably); also recorded: elevated alanine transaminase (ALT)—grade 1 (probably); also recorded: elevated lactate dehydrogenase (LDH)—grade 1 (possibly)
- BCV-related adverse event, grade (relatedness) ([3]; cohort 1 (0.2 mg/kg IV twice weekly), patient 110-01): diarrhea—grade 2 (possibly)
- Grade 3 adverse events (number) [3, 7]: 0
- BCV-related adverse event, grade (relatedness) ([3]; cohort 2 (0.3 mg/kg IV twice weekly), patient 101-09): diarrhea—grade 3 (possibly)
- BCV-related adverse event, grade (relatedness) ([3]; cohort 2 (0.3 mg/kg IV twice weekly), patient 101-14): hypertransaminasemia—grade 3 (possibly)
- BCV-related adverse event, grade (relatedness) ([3]; cohort 2 (0.3 mg/kg IV twice weekly), patient 109-03): nausea—grade 1 (possibly)
- Grade 3 adverse events (number) [3, 5]: 2
- BCV-related adverse event, grade (relatedness) ([3]; cohort 3 (0.4 mg/kg IV twice weekly), patient 102-02, 0.4 mg/kg): increased ALT—grade 3 (possibly); also recorded: increased AST—grade 3 (possibly)
- BCV-related adverse event, grade (relatedness) ([3]; cohort 3 (0.4 mg/kg IV twice weekly), patient 109-04, 0.4 mg/kg): feeling of a racing heart—grade 1 (possibly); also recorded: nausea—grade 1 (possibly)
- Grade 3 adverse events (number) [3, 6]: 1
- patients in whom the levels of viral load of AdV reached below the LOD (adenovirus (AdV) [4]; cohort 1: 0.2 mg/kg (10 mg/dose if body weight ≥50 kg) IV twice weekly, plasma, LOD 25 copies/ml): two
- cases with relapse among those that reached below the LOD (adenovirus (AdV) [4]; [7]): One
- patients who died (adenovirus (AdV) [4]; [7]): one
- patients in whom the levels of viral load of AdV reached below the LOD (adenovirus (AdV) [4]; cohort 2: 0.3 mg/kg (15 mg/dose if body weight ≥50 kg) IV twice weekly, plasma, LOD 25 copies/ml): 5 patients
- patients who died (adenovirus (AdV) [4]; [5]): one
- time for the levels of viral load to reach below the LOD (adenovirus (AdV) [4]; cohort 2: 0.3 mg/kg IV twice weekly, the 5 cases): longer time
- cases in which the levels of viral load of AdV reached below the LOD (adenovirus (AdV) [4]; cohort 3: 0.4 mg/kg (20 mg/dose if body weight ≥50 kg) IV twice weekly, plasma, LOD 25 copies/ml, all cases): 10 cases
- relapse or death (adenovirus (AdV) [4]; [6]): No patient relapsed or died
- patients whose levels of viral load reached below the LOD within 4 weeks (adenovirus (AdV) [4]; [8]): 8 patients
- remaining patients whose levels of viral load reached below the LOD at Week 5 and 6 (adenovirus (AdV) [4]; [8]): 2 patients
- time for the levels of viral load to reach below the LOD (adenovirus (AdV) [4]; cohort 3: 0.4 mg/kg IV twice weekly, the 10 cases): shorter time
- time at which the viral load of AdV was reduced to a level below the LOD (adenovirus (AdV) [4]; patient 110-05 in cohort 3 (0.4 mg/kg IV twice weekly)): 3 Week
